Organism: Cavia porcellus
Assay: Evaluated for muscarinic activity using guinea pig ilea
Format: functional

With `CC(=O)O[C@H]1CC[C@H]1[N+](C)(C)C.[I-]` the ID50 was 83 nM.

Work on `CC(=O)O[C@@H]1CC[C@H]1[N+](C)(C)C.[I-]` yielded an ID50 of 68 nM.

— ChEMBL document CHEMBL1122133, “(+/-)-cis-2-acetoxycyclobutyltrimethylammonium iodide: a semirigid analogue of acetylcholine” (1982)
